# Measurements taken from US9474790B2, “Stable, protracted GLP-1/glucagon receptor co-agonists for medical use” (Novo Nordisk A/S, priority 2013, dated 2016).
# Numbered stars: 1 amine (or outer) side, 2 acyl side, 3 side chain; on linkers, the order of the positions; unused ones are H or OH. Square brackets hold non-standard residues; d marks the D form. Side chains are listed from the residue outwards. Peptide text beside a SMILES is read from it. * marks the point of attachment. C18 diacid = O=C(O)CCCCCCCCCCCCCCCCC(=O)*; γGlu = O=C(O)[C@H](CCC(=O)[*:2])N[*:1]; Ac4c = NC1(C(=O)O)CCC1; AEEA = NCCOCCOCC(=O)O; Aib = CC(C)(N)C(=O)O
# Target: T1, human glucagon receptor (Homo sapiens, UniProt P47871)
# T1 construct: expressed in transfected cells; host or cells: BHK cells (parent BHK570, CRE luciferase clone BHK/KZ10-20-48), clone pLJ6'-4-25
# Experiment: Glucagon receptor binding, 125I-glucagon displacement SPA on isolated membranes
# Details: displacement of 125I-glucagon from membranes; read-out: IC50 GlucR
# Method: The purpose of this assay was to test the in vitro receptor binding activity (i.e. affinity) of the glucagon derivatives of the invention. The receptor binding activity is a measure of affinity of a derivative for the human glucagon receptor.
# The receptor binding of each compound to the human glucagon receptor was measured in a displacement binding assay. In this type of assay a labelled ligand (in this case 125I-glucagon) is bound to the receptor. Each derivative was added in a series of concentrations to isolated membranes containing the human glucagon receptor and displacement of the labelled ligand is monitored. The receptor binding was reported as the concentration at which half of the labelled ligand is displaced from the receptor, the IC50 value.
# In order to test the binding of the derivatives to albumin, the assay may be performed in a very low concentration of serum albumin (max. 0.001% final assay concentration) as well as in the presence of a higher concentration of serum albumin (0.2% final assay concentration). An increase of the IC50 value, in the presence of serum albumin indicates an affinity to serum albumin and represents a method to predict a protracted pharmacokinetic profile of the test substance in animal models.
# The following chemicals were used in the assay: DMEM w Glutamax (Gibco 61965-026), Pen/strep (Invitrogen 15140-122), G418 (Invitrogen 10131-027), Versene (Gibco 15040), 1 M Hepes (Gibco 15630), PBS (Invitrogen 14190-094), fetal calf serum (Invitrogen 16140-071), MgCl2 (Merck 1.05832.1000), EDTA (Invitrogen 15575-038), CaCl2 (Sigma, C5080), Tween 20 (Amresco 0850C335), ovalbumin (Sigma A5503), SPA particles (wheat germ agglutinin (WGA) SPA beads, Perkin Elmer RPNQ0001), [125I]-glucagon (produced in-house), OptiPlate™-96 (Packard 6005290).
# HME buffer consisted of 25 mM HEPES, 2 mM MgCl2 and 1 mM EDTA, and pH was adjusted to 7.4. Assay buffer consisted of 50 mM HEPES supplemented with 5 mM MgCl2, 1 mM CaCl2, 0.02% Tween 20 and 0.1% Ovalbumin, and pH was adjusted to 7.4.
# The cells used in this assay (clone BHK hGCGR A3*25) were BHK cells stable transfected with an expression plasmid containing the cDNA encoding the human glucagon receptor.
# The cells were grown at 5% CO2 in DMEM, 10% fetal calf serum, 1% Pen/Strep (Penicillin/Streptomycin) and 1.0 mg/ml of the selection marker G418. To make a membrane preparation the cells were grown to approximately 80% confluence. The cells were washed twice in phosphate-buffered saline and harvested. The cells were pelleted using a brief centrifugation and the cell pellet was kept on ice. Lyse the cells by adding approx. 5 ml HME buffer, mix by pipetting and snap freeze in liquid nitrogen. Thaw quickly and add HME buffer to 10 ml. The cell pellet was homogenised with an ULTRA-THURRAX dispersing instrument for 20-30 sec. The homogenate was centrifuged at 20.000×G, 4° C. for 10 min. The pellet was re-suspended (homogenised) in 1-2 ml HME buffer. The protein concentration was determined. The membranes were aliquoted and snap-frozen in liquid nitrogen and stored at minus 80° C.
# 1. For the receptor binding assay, 50 μl of the assay buffer was added to each well of an assay plate.
# 2. Test compounds were serially diluted to give the following concentrations: 8×10EE-7 M, 8×10EE-8 M, 8×10EE-9 M, 8×10EE-10 M, 8×10EE-11 M, 8×10EE-12 M and 8×10EE-13 M. Twenty-five μl were added to appropriate wells in the assay plate.
# 3. Cell membrane aliquots were thawed and diluted to their working concentration. Fifty μl were added to each well in the assay plate.
# 4. WGA SPA beads were suspended in assay buffer at 20 mg/ml. The suspension was diluted to 10 mg/ml in assay buffer just prior to addition to the assay plate. Fifty μl were added to each well in the assay plate.
# 5. The incubation was started by adding 25 μl of 480 pM solution of [125I]-glucagon to each well of the assay plate. A 25 μl aliquot was reserved for measuring total counts/well.
# 6. The assay plate was incubated for 2 h at 25° C.
# 7. […]
# T1 sequence (P47871 26-477): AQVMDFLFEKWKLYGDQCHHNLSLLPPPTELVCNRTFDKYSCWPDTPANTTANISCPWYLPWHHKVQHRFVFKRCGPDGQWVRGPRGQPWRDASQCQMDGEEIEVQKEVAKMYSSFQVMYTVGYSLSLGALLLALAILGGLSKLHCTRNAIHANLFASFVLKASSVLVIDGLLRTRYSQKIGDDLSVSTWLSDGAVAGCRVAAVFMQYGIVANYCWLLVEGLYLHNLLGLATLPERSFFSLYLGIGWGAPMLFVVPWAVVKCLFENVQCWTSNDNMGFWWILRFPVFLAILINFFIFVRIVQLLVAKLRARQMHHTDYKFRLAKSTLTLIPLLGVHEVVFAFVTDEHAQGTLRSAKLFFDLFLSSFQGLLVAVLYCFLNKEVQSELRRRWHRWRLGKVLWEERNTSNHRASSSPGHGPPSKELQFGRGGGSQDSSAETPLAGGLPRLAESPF
row,IC50,SMILES
1,6.7 nM,"CC(C)C[C@H](NC(=O)[C@H](Cc1ccc(O)cc1)NC(=O)[C@H](CCCCN)NC(=O)[C@H](CO)NC(=O)[C@H](CC(C)C)NC(=O)[C@H](CC(=O)O)NC(=O)[C@H](CO)NC(=O)[C@@H](NC(=O)[C@H](Cc1ccccc1)NC(=O)[C@@H](NC(=O)CNC(=O)[C@H](CCC(N)=O)NC(=O)C(C)(C)NC(=O)[C@@H](N)Cc1c[nH]cn1)[C@@H](C)O)[C@@H](C)O)C(=O)N[C@@H](CCC(=O)O)C(=O)N[C@@H](CO)C(=O)N[C@@H](CCCNC(=N)N)C(=O)N[C@@H](CCCNC(=N)N)C(=O)N[C@@H](C)C(=O)N[C@@H](CCCNC(=N)N)C(=O)N[C@@H](CCC(=O)O)C(=O)N[C@@H](Cc1ccccc1)C(=O)N[C@H](C(=O)N[C@@H](CCC(N)=O)C(=O)N[C@@H](Cc1c[nH]c2ccccc12)C(=O)N[C@@H](CC(C)C)C(=O)N[C@@H](CC(C)C)C(=O)N[C@@H](CCCCNC(=O)CC[C@H](NC(=O)COCCOCCNC(=O)COCCOCCNC(=O)CC[C@H](NC(=O)CC[C@H](NC(=O)CCCCCCCCCCCCCCCCC(=O)O)C(=O)O)C(=O)O)C(=O)O)C(=O)N[C@H](C(N)=O)[C@@H](C)O)C(C)C [Example 20, N^ε29-[(4S)-4-carboxy-4-[[2-[2-[2-[[2-[2-[2-[[(4S)-4-carboxy-4-[[(4S)-4-carboxy-4-(17-carboxyheptadecanoylamino)butanoyl]amino]butanoyl]amino]ethoxy]ethoxy]acetyl]amino]ethoxy]ethoxy]acetyl]amino]butanoyl]-[Aib2,Leu10,Glu15,Arg20,Glu21,Leu27,Lys28]-Glucagon amide] (H-H[Aib]QGTFTSDLSKYLESRRAREFVQWLLK([γGlu-AEEA-AEEA-γGlu-γGlu-C18 diacid])T-NH2; N-terminus assumed)"
2,1.4 nM,"CC(C)C[C@H](NC(=O)[C@H](Cc1ccc(O)cc1)NC(=O)[C@H](CCCNC(=N)N)NC(=O)[C@H](CO)NC(=O)[C@H](CC(C)C)NC(=O)[C@H](CC(=O)O)NC(=O)[C@H](CO)NC(=O)[C@@H](NC(=O)[C@H](Cc1ccccc1)NC(=O)[C@@H](NC(=O)CNC(=O)[C@H](CCC(N)=O)NC(=O)C1(NC(=O)[C@@H](N)Cc2c[nH]cn2)CCC1)[C@@H](C)O)[C@@H](C)O)C(=O)N[C@@H](CCC(=O)O)C(=O)N[C@@H](CO)C(=O)N[C@@H](CCCNC(=N)N)C(=O)N[C@@H](CCCNC(=N)N)C(=O)N[C@@H](C)C(=O)N[C@@H](CCCNC(=N)N)C(=O)N[C@@H](CCC(=O)O)C(=O)N[C@@H](Cc1ccccc1)C(=O)N[C@H](C(=O)N[C@@H](CCC(N)=O)C(=O)N[C@@H](Cc1c[nH]c2ccccc12)C(=O)N[C@@H](CC(C)C)C(=O)N[C@@H](CC(C)C)C(=O)N[C@@H](CCCCNC(=O)CC[C@H](NC(=O)CC[C@H](NC(=O)COCCOCCNC(=O)COCCOCCNC(=O)CC[C@H](NC(=O)CC[C@H](NC(=O)CCCCCCCCCCCCCCCCC(=O)O)C(=O)O)C(=O)O)C(=O)O)C(=O)O)C(=O)N[C@H](C(N)=O)[C@@H](C)O)C(C)C [Example 59, N^ε28-[(4S)-4-carboxy-4-[[(4S)-4-carboxy-4-[[2-[2-[2-[[2-[2-[2-[[(4S)-4-carboxy-4-[[(4S)-4-carboxy-4-(17-carboxyheptadecanoylamino)butanoyl]amino]butanoyl]amino]ethoxy]ethoxy]acetyl]amino]ethoxy]ethoxy]acetyl]amino]butanoyl]amino]butanoyl]-[Acb2,Leu10,Arg12,Glu15,Arg20,Glu21,Leu27,Lys28]-Glucagon amide] (H-H[Ac4c]QGTFTSDLSRYLESRRAREFVQWLLK([γGlu-γGlu-AEEA-AEEA-γGlu-γGlu-C18 diacid])T-NH2; N-terminus assumed)"
3,0.5 nM,"CC(C)C[C@H](NC(=O)[C@H](Cc1ccc(O)cc1)NC(=O)[C@H](CCCCN)NC(=O)[C@H](CO)NC(=O)[C@H](CC(C)C)NC(=O)[C@H](CC(=O)O)NC(=O)[C@H](CO)NC(=O)[C@@H](NC(=O)[C@H](Cc1ccccc1)NC(=O)[C@@H](NC(=O)CNC(=O)[C@H](Cc1c[nH]cn1)NC(=O)C(C)(C)NC(=O)[C@@H](N)Cc1c[nH]cn1)[C@@H](C)O)[C@@H](C)O)C(=O)N[C@@H](CCC(=O)O)C(=O)N[C@@H](CO)C(=O)N[C@@H](CCCNC(=N)N)C(=O)N[C@@H](CCCNC(=N)N)C(=O)N[C@@H](C)C(=O)N[C@@H](CCCNC(=N)N)C(=O)N[C@@H](CCC(=O)O)C(=O)N[C@@H](Cc1ccccc1)C(=O)N[C@H](C(=O)N[C@@H](CCC(N)=O)C(=O)N[C@@H](Cc1c[nH]c2ccccc12)C(=O)N[C@@H](CC(C)C)C(=O)N[C@@H](CC(C)C)C(=O)N[C@@H](CCCCNC(=O)CC[C@H](NC(=O)COCCOCCNC(=O)COCCOCCNC(=O)CC[C@H](NC(=O)CC[C@H](NC(=O)CCCCCCCCCCCCCCCCC(=O)O)C(=O)O)C(=O)O)C(=O)O)C(=O)N[C@H](C(N)=O)[C@@H](C)O)C(C)C [Example 30, N^ε28-[(4S)-4-carboxy-4-[[2-[2-[2-[[2-[2-[2-[[(4S)-4-carboxy-4-[[(4S)-4-carboxy-4-(17-carboxyheptadecanoylamino)butanoyl]amino]butanoyl]amino]ethoxy]ethoxy]acetyl]amino]ethoxy]ethoxy]acetyl]amino]butanoyl]-[Aib2,His3,Leu10,Glu15,Arg20,Glu21,Leu27,Lys28]-Glucagon amide] (H-H[Aib]HGTFTSDLSKYLESRRAREFVQWLLK([γGlu-AEEA-AEEA-γGlu-γGlu-C18 diacid])T-NH2; N-terminus assumed)"
4,8.5 nM,"CC(C)C[C@H](NC(=O)[C@H](Cc1c[nH]c2ccccc12)NC(=O)[C@H](C)NC(=O)[C@@H](NC(=O)[C@H](Cc1ccccc1)NC(=O)[C@H](CCC(=O)O)NC(=O)[C@H](CCCNC(=N)N)NC(=O)[C@H](C)NC(=O)[C@H](CCCNC(=N)N)NC(=O)[C@H](CCCNC(=N)N)NC(=O)[C@H](CCCCNC(=O)CC[C@H](NC(=O)COCCOCCNC(=O)COCCOCCNC(=O)CC[C@H](NC(=O)CC[C@H](NC(=O)CCCCCCCCCCCCCCCCC(=O)O)C(=O)O)C(=O)O)C(=O)O)NC(=O)[C@H](CC(=O)O)NC(=O)[C@H](CC(C)C)NC(=O)[C@H](Cc1ccc(O)cc1)NC(=O)[C@H](CCCCN)NC(=O)[C@H](CO)NC(=O)[C@H](CC(C)C)NC(=O)[C@H](CC(=O)O)NC(=O)[C@H](CO)NC(=O)[C@@H](NC(=O)[C@H](Cc1ccccc1)NC(=O)[C@@H](NC(=O)CNC(=O)[C@H](CCC(N)=O)NC(=O)C(C)(C)NC(=O)[C@@H](N)Cc1c[nH]cn1)[C@@H](C)O)[C@@H](C)O)C(C)C)C(=O)N[C@@H](CC(C)C)C(=O)N[C@@H](CC(N)=O)C(=O)N[C@H](C(N)=O)[C@@H](C)O [Example 19, N^ε29-[(4S)-4-carboxy-4-[[2-[2-[2-[[2-[2-[2-[[(4S)-4-carboxy-4-[[(4S)-4-carboxy-4-(17-carboxyheptadecanoylamino)butanoyl]amino]butanoyl]amino]ethoxy]ethoxy]acetyl]amino]ethoxy]ethoxy]acetyl]amino]butanoyl]-[Aib2,Leu10,Lys16,Arg20,Glu21,Ala24,Leu27]-Glucagon amide] (H-H[Aib]QGTFTSDLSKYLDK([γGlu-AEEA-AEEA-γGlu-γGlu-C18 diacid])RRAREFVAWLLNT-NH2; N-terminus assumed)"
